Experimental data: patent US7851436B2, “Inhibition of migration and induction of cell death by the type II collagen amino propeptides” (Washington University, priority 2007, dated 2010)
One block for each substance: values may come before it.

Legend:
[1] = test system: Ch-1 cell adhesion to PIIBNP; assay: Inhibition of Ch-1 cell adhesion to PIIBNP by synthetic blocking peptides and integrin antibodies; assay type: cell-based, human
Procedure: (§1) Cell Adhesion Assay. Cell adhesion assays were performed using a spectrometric method. A 96-well plate was coated at 4° C. overnight with recombinant proteins. Wells were washed three times with RPMI-1640 medium containing 10% FBS. Ch-1 cells were harvested with limited trypsin digestion and plated at 5×10^4 cells per well in RPMI-1640 medium supplemented with 10% FBS for an hours. Proteins were added and incubation continued for 1 hour. The wells were washed three times with pre-warmed PBS to remove non-adherent cells. The adherent cells were fixed with 4% paraformaldehyde in PBS for 10 minutes at room temperature and stained with 0.5% toluidine blue for 5 minutes. The wells were rinsed with water and cells were solubilized with 0.1% SDS. Absorbance at 595 nm was recorded on a SpectraMax plate reader. Synthetic blocking peptides and antibodies to αVβ3 and αVβ5 integrin were pre-incubated with cells for 15 to 30 mins before they were added onto the wells in the inhibition assays.
Antibodies. Monoclonal antibodies used for blocking experiments were: mouse anti αVβ3 and αVβ5 integrins (Chemicon). Polyclonal antibodies for immunohistochemistry and western blotting were rabbit anti human αV, α2, α3, α5, β1, β3, β5 integrin, goat anti human actin (Santa Cruz), mouse anti exon 2, rabbit anti GSTexon 2, and chicken anti PIIBNP (antiserum made in our lab).

[2] = test system: Ch-1 cells; assay: Detection of cell death in Ch-1 cells; assay type: cell-based, human; conditions: 0.8 μM, serum free medium, 24 hrs; type I collagen, fibronectin or Matrigel coated plates
Procedure: Cell Culture. Human Chondrosarcoma cell line (Ch-1) was isolated from a portion of chondrosarcoma tumor. The Ch-1 cell line was maintained in RPMI-1640 supplemented with 10% FBS and at 37° C. in a humidified, 5% CO2 atmosphere. Human chondrocytes were obtained from Dr. Davis Adkisson (ISTO Technologies, St. Louis) or isolated from macroscopically intact tissue obtained from total joint arthroplasty as described (Bassleer et al., 1998). HeLa 229 cells and MDA-MB 231 cell lines were provided by Dr. Kathy Weilbaecher (Washington University) and were cultured in RPMI medium supplemented with 10% FBS. HUVEC cells were a gift from Dr. William Frazier (Washington University) and were cultured in M199 Earle's medium with 10 units/ml of penicillin, 5 μg/ml streptomycin and 0.25 μg/ml Fungizone supplemented with 10% FBS, 0.1 mg/ml L-glutamine, 25 mM Hepes, 16 units/ml of heparin (Sigma) and 0.1 mg/ml endothelial cell mitogen (Biochemical Technologies).
Detection of Cell Death. Cells were cultured to confluence in a 24-well plate pre-coated with type I collagen, fibronectin (Sigma), and ECM Matrigel (Becton Dickinson). Proteins in serum-free medium were added to the cells. Cells were monitored by light microscopy and images were digitally photographed using a Q capture Retiga 2000R camera. Quantification of cells remaining in the well was performed by washing with PBS for three times, fixing with 4% paraformaldehyde. The cells per field (×400) were counted for three field per well (3 wells per measurement). The mean number and standard deviation (SD) were calculated.

[3] = test system: HUVEC cells; assay: HUVEC cell death; assay type: cell-based, human; conditions: 60 hrs, 37° C.; higher concentrations
Procedure: FIG. 6 depicts photographs and graphs showing that PIIBNP inhibits angiogenesis. […] Quantification of tube formation was calculated based on branch points per field of view (FIG. 6C) for each treatment ranging from 0.1 μM to 10 μM of PIIBNP. […] GST (▴) and PIIANP (●) had no effect on the cells.
As a second test for angiogenesis, we tested the ability of PIIBNP to inhibit outgrowth of endogenous endothelial cells from freshly isolated rat aorta. […] In order to determine whether PIIBNP caused endothelial cell death, the number of HUVEC cells present after incubation with PIIBNP was determined (FIGS. 6E and 8). Tube formation was inhibited by 50% with 0.1 μM PIIBNP, with no cell death. […] Consequently, PIIBNP can inhibit angiogenesis in a cell line and in endogenous endothelial cells mediated by integrins αVβ3 and αVβ5.

[4] = biological target: T1, αVβ3 integrin (Homo sapiens, UniProt P05106+P06756); assay: Cell surface labeling and GST pull-down with immunoblotting; assay type: binding; conditions: biotin-labeled Ch-1 membrane proteins, Western blot
T1 construct: Ch-1 membrane proteins were labeled with biotin, and PIIBNP was used to isolate the integrin molecules; endogenous in cells; host or cells: Ch-1 human chondrosarcoma cells (surface-biotinylated, lysed)
T1 sequence (P06756 31-889 limits assumed): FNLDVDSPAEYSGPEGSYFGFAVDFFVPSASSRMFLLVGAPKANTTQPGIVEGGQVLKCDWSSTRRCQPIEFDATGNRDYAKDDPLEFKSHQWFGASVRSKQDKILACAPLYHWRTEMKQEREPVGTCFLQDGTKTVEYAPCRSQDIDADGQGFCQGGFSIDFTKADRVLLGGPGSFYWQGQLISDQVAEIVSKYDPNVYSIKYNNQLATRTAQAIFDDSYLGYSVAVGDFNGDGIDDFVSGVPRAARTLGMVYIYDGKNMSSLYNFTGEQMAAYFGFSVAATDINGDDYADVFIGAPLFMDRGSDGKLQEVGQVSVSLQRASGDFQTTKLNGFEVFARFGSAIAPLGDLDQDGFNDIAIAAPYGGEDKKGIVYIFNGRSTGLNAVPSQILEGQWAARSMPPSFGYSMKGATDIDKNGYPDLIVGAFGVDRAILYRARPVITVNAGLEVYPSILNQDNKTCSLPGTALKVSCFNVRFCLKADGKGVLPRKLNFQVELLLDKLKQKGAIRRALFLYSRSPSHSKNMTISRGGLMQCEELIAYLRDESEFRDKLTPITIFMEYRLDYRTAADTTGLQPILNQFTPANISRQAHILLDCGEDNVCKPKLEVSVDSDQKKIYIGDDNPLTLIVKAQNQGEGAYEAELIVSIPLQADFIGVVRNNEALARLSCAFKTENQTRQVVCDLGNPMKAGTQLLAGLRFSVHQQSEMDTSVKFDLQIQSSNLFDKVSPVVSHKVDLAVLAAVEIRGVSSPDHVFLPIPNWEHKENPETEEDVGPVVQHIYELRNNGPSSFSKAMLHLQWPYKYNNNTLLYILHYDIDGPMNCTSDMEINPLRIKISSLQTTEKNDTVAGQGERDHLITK
T1 sequence (P06756 891-1048 limits assumed): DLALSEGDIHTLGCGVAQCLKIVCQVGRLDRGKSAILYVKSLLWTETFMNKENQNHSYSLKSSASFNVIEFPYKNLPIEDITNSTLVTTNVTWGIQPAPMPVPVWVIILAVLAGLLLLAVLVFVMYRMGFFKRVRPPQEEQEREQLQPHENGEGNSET
T1 sequence (P05106 27-788): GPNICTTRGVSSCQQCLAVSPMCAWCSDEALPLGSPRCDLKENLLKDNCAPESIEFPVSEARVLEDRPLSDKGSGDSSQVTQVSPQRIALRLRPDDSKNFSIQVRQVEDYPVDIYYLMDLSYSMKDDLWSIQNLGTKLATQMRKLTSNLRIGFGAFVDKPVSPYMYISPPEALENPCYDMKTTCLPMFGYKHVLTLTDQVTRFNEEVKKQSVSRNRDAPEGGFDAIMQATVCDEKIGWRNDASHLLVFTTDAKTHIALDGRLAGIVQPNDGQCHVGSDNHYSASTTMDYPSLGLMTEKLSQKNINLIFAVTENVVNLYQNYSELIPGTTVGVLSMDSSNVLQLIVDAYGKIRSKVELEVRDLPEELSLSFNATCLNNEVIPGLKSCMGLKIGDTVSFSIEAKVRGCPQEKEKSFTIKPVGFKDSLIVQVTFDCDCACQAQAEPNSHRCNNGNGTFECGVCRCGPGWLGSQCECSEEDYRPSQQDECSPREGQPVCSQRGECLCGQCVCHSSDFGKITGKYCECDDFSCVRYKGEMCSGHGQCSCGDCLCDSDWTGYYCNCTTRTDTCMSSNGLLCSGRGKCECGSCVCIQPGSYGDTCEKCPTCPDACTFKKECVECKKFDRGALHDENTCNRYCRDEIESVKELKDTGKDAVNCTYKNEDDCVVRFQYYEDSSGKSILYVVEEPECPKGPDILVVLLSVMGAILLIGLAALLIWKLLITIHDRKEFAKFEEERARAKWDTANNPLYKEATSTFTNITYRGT
Procedure: (§2) Immunoblotting. Western blotting was performed as described (7). Blots were probed with the following primary antibodies: rabbit anti αV, α2, α3, α5, β1, β3, β5 integrin and goat anti actin (Saint Cruz), chicken anti PIIBNP antiserum, and mouse anti exon 2 antiserum.
(§3) Cell Surface labeling and GST Pull-down Assay. Ch-1 cells were incubated with EZ-link Sulfo-NHS-Biotin reagent for 30 mins. according to the product instruction (Sigma). After 3 washes with 0.1 M glycine in PBS, the cells were lysed with a lysis buffer described above. The lysate was incubated with glutathione derivatized agarose beads previously bound with GST, PIIANP, PIIBNP or mPIIBNP for 1 hr. at RT. […] The membrane was washed and incubated with antibodies and then incubated with a secondary antibody coupled to horseradish peroxidase. The antibody complex was visualized by enhanced chemiluminescence.

[5] = biological target: T2, αVβ5 integrin (Homo sapiens, UniProt P06756+P18084); assay: as above; assay type: binding; conditions: biotin-labeled Ch-1 membrane proteins, Western blot
T2 construct: Ch-1 membrane proteins were labeled with biotin, and PIIBNP was used to isolate the integrin molecules; endogenous in cells; host or cells: Ch-1 human chondrosarcoma cells (surface-biotinylated, lysed)
T2 sequence (P06756 31-889 limits assumed): as the sequence (P06756 31-889 limits assumed) above
T2 sequence (P06756 891-1048 limits assumed): as the sequence (P06756 891-1048 limits assumed) above
T2 sequence (P18084 24-799): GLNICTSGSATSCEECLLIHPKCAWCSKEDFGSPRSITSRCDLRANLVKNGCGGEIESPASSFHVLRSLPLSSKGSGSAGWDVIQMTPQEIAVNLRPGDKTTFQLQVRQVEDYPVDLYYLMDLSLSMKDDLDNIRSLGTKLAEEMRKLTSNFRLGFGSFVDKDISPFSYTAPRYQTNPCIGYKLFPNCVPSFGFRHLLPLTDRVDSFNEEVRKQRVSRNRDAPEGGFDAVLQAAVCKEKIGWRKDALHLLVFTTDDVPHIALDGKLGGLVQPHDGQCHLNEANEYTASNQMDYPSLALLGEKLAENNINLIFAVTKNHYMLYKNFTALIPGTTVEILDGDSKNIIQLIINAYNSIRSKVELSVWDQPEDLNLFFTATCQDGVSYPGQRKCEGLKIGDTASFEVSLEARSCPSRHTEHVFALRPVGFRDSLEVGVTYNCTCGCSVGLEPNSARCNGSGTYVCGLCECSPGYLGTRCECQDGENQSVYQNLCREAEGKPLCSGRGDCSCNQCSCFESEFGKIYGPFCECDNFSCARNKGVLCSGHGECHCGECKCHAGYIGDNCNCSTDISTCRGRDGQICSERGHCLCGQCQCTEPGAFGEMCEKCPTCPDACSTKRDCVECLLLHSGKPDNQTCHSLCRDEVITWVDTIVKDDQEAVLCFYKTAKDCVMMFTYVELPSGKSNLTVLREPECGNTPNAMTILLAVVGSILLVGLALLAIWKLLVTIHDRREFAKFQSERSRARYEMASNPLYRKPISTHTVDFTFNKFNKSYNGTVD
Procedure: as §2, §3

[6] = test system: Ch-1 cells; assay: Cell adhesion assay (Ch-1 cells on wells coated with recombinant proteins); assay type: cell-based, human; conditions: wells coated with recombinant protein
Procedure: as §1
Cell Culture. Human Chondrosarcoma cell line (Ch-1) was isolated from a portion of chondrosarcoma tumor (Chansky et al., J Orthop Res. (1998) 16(5):521-30). The Ch-1 cell line was maintained in RPMI-1640 supplemented with 10% FBS and at 37° C. in a humidified, 5% CO2 atmosphere.

Substance: GRADNP (listed as Homo sapiens)
inhibition of adhesion ([1]; at 60 μM): ~50%

Substance: GRGDNP (listed as Homo sapiens)
inhibition of adhesion ([1]; at 10 μM): 50%
compete and inhibit adhesion ([1]; synthetic peptides pre-incubated with cells): compete and inhibit adhesion

binding to integrin αVβ3 [4]: does not
binding to integrin αVβ5 [5]: does not
Substance: GST: Recombinant GST alone, control protein for the GST fusion proteins [reference compound]
induction of cell death in Ch-1 cells [2]: did not induce cell death
HUVEC cell death [3]: no effect

Substance: PIIBNPn: PIIBNP obtained by cleavage of GST from a GST-PIIBNP fusion protein with thrombin beads
adhesion to Ch-1 cells [6]: strong binding
